Data on 11 molecules can be found in article PMC4225009, “Structure-activity-relationship study of N-acyl-N-phenylpiperazines as potential inhibitors of the Excitatory Amino Acid Transporters (EAATs): improving the potency of a micromolar screening Hit is not truism” (SpringerPlus, 2013).

Read-outs that look alike come from different tables or passages of the source. Where only a bound is given, the exact number is not on record here.

The target of one data set is T1, human EAAT2 (Homo sapiens, UniProt P43004).
T1 construct: expressed in transfected cells
T1 sequence (P43004 whole entry): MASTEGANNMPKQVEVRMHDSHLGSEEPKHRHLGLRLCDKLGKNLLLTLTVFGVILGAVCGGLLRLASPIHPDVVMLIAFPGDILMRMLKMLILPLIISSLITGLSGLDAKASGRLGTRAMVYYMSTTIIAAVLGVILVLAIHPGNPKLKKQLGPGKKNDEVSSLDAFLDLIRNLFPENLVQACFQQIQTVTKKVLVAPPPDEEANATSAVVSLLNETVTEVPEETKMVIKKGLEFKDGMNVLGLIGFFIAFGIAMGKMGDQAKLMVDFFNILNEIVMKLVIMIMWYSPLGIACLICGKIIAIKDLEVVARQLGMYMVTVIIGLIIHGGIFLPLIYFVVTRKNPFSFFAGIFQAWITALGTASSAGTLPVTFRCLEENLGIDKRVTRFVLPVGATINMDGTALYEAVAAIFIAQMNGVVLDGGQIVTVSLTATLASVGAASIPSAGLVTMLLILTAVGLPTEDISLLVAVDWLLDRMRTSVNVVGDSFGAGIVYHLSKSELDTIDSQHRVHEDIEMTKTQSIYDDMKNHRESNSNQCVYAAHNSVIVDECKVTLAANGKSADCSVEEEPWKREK
The data set can be described thus: [3H]-D-aspartate uptake assay at HEK293 cells stably expressing human EAAT2. Format: cell-based. From the text:
(§1) In total, […] piperazine analogs 2.1-2.40 and 3.1-3.12 were characterized pharmacologically at stable HEK293 cells expressing human EAAT1-3 in a [^3H]-D-aspartate uptake assay, (Jensen & Bräuner-Osborne [2004]) and the results are summarized in Table 1 and Table 2. […] Usually, such findings would lead to the conclusion that the bicyclo-[2.2.1]-heptanyl group occupies a promiscuous hydrophobic pocket, which could be optimized for increased potency. However, upon increasing or decreasing the hydrophobic bulk and/or flexibility, a clear drop in potency was observed (analogs 2.1-2.17, Table 1). […] These findings could open up for the hypothesis that the pocket is indeed not hydrophobic but instead hydrophilic in nature. Upon binding of the hydrophobic alkane group, water molecules are forced out and ligand binding is entropically driven rather than enthalpically. Thus analogs 2.18-2.31, which comprise a hydrophobic group, could be potential inhibitors.
(§2) Analogs 2.22-2.31, 2.36-2.40, 3.3, 3.4, 3.6 and 3.12 were obtained as 5 mg portions pre-dissolved in DMSO from ChemBridge corporation and used directly in the [3H]-Asp-uptake assay.

Another data set addresses T2, human EAAT1 (Homo sapiens, UniProt P43003).
T2 construct: expressed in transfected cells
Kind of data set: [3H]-D-aspartate uptake assay at HEK293 cells stably expressing human EAAT1. Format: cell-based.
Text: as §1, §2

The next data set has as its system human EAAT1-3. The data set can be described thus: [3H]-D-aspartate uptake assay, statements made for EAAT1-3 together. The format is cell-based. Particulars: for inhibitory activity at EAAT1-3 (in words): HEK293 cells expressing human EAAT1-3, [3H]-D-aspartate uptake; for drop in inhibitory potency across the subtypes: relative to the lead, EAAT1-3.
Text: as §1, §2

In a further data set the target is T3, human EAAT3 (Homo sapiens, UniProt P43005).
T3 construct: expressed in transfected cells
T3 sequence (P43005 1-524): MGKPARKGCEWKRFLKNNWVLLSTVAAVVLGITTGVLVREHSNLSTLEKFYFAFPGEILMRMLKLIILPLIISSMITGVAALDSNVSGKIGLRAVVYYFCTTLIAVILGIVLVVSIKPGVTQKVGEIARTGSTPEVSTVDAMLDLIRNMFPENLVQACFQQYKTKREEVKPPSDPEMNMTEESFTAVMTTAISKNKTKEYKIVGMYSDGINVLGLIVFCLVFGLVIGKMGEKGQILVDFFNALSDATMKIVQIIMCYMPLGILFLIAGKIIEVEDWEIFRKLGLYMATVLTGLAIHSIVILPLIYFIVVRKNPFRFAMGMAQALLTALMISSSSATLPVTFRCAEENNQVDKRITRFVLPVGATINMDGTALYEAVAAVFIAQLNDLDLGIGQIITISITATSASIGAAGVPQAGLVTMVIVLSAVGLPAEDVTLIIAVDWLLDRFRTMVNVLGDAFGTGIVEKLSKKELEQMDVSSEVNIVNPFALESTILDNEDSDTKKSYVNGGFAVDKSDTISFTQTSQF
The data set can be described thus: [3H]-D-aspartate uptake assay at HEK293 cells stably expressing human EAAT3. The format is cell-based.
Text: as §1, §2

Where [1] appears, read: [3H]-D-aspartate uptake, HEK293 cells stably expressing human EAAT2, analogs 1 and 2.1-2.40 (Table 1), read-out: EAAT2 IC50.
Where [2] appears, read: [3H]-D-aspartate uptake, HEK293 cells stably expressing human EAAT1, analogs 1 and 2.1-2.40 (Table 1), read-out: EAAT1 IC50.
Where [3] appears, read: [3H]-D-aspartate uptake, HEK293 cells stably expressing human EAAT3, analogs 1 and 2.1-2.40 (Table 1), read-out: EAAT3 IC50.
Where [4] appears, read: D-aspartate uptake, HEK293 cells stably expressing human EAAT2, analogs 3.1-3.12 (Table 2), read-out: EAAT2 IC50.
Setting [5] is: D-aspartate uptake, HEK293 cells stably expressing human EAAT1, analogs 3.1-3.12 (Table 2), read-out: EAAT1 IC50.
Where [6] appears, read: D-aspartate uptake, HEK293 cells stably expressing human EAAT3, analogs 3.1-3.12 (Table 2), read-out: EAAT3 IC50.

T2 sequence (P43003 whole entry): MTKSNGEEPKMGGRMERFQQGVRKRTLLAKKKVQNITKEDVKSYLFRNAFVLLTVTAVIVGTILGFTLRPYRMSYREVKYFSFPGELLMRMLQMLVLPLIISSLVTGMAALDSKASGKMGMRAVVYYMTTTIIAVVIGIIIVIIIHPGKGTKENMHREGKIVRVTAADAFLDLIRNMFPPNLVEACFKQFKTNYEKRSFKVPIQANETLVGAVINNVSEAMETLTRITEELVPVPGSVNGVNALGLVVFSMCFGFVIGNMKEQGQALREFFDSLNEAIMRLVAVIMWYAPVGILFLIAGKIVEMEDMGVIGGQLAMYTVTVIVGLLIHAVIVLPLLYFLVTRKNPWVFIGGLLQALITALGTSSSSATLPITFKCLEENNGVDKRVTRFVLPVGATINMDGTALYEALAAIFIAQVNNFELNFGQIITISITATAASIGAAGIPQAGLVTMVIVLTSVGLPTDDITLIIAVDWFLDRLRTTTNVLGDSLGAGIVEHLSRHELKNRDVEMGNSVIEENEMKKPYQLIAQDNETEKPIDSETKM

Usually IC50 stands for the concentration at which inhibition is half-maximal. As to `O=C([C@@H]1C[C@@H]2CC[C@H]1C2)N1CCN(c2cccc(C(F)(F)F)c2)CC1` (racemic) [(±)-endo-1, (±)-endo-Bicyclo[2.2.1]heptan-2-yl(4-(3-(trifluoromethyl)phenyl)piperazin-1-yl)methanone], the IC50 at human EAAT2 (setting [1]) is 32 µM; on human EAAT1 (setting [2]) it was 14 µM; on human EAAT3 (setting [3]), 10 µM. The “EAAT2 pIC50 ± S.E.M.” value at human EAAT2 (value in brackets, Table 1) amounted to 4.52 ± 0.12. Besides, on human EAAT1 (value in brackets, Table 1), the “EAAT1 pIC50 ± S.E.M.” value stood at 4.88 ± 0.09. In addition, the “inhibitory activity at EAAT1-3 (in words)” value (from here on “inhibitory activity”) with human EAAT1-3 is recorded as “inhibitory potency in the mid-micromolar range”. Besides, the “EAAT3 pIC50 ± S.E.M.” value on human EAAT3 (value in brackets, Table 1) was 5.04 ± 0.13.
For `O=C(C1CC2CCC1C2)N1CCN(c2ccccc2)CC1` (racemic) [(±)-endo-exo-3.1, Bicyclo[2.2.1]heptan-2-yl(4-phenylpiperazin-1-yl)methanone], the IC50 at human EAAT2 (setting [4]), on human EAAT1 (setting [5]) and at human EAAT3 (setting [6]) was above 300 µM each time. Besides, the “inhibitory activity” value in the data set with human EAAT1-3 is “loss of inhibitory activity”.
As a reminder, the melting point is the temperature, or range, at which the solid turns liquid. `O=C(C1CC2CCC1C2)N1CCN(c2ccc(C(F)(F)F)cc2)CC1` (racemic) [(±)-endo-exo-3.2, (±)-endo-exo-Bicyclo[2.2.1]heptan-2-yl(4-(4-(trifluoromethyl)phenyl)piperazin-1-yl)methanone]: the melting point was 126 to 127 °C (dec.). At human EAAT2 (setting [4]), the concentration for half-maximal inhibition (IC50) is above 300 µM. Moreover, the half-maximal inhibitory concentration (IC50) on human EAAT1 (setting [5]) is above 300 µM. The “inhibitory activity” value in the data set with human EAAT1-3 is given as “loss of inhibitory activity”. Further, the IC50 at human EAAT3 (setting [6]) was above 300 µM.
Take `O=C(C1CC2CCC1C2)N1CCN(c2ccccc2C(F)(F)F)CC1` (racemic) [(±)-endo-exo-3.5, (±)-endo-exo-Bicyclo[2.2.1]heptan-2-yl(4-(2-(trifluoromethyl)phenyl)piperazin-1-yl)methanone]: the IC50 at human EAAT2 (setting [4]) was above 300 µM; at human EAAT1 (setting [5]), around 300 µM; on human EAAT3 (setting [6]), above 300 µM. Moreover, the “inhibitory activity” value in the data set with human EAAT1-3 is “loss of inhibitory activity”.
As for `O=C(C1CC2CCC1C2)N1CCN(c2cccc(O)c2)CC1` (racemic) [(±)-endo-exo-3.8, (±)-endo-exo-Bicyclo[2.2.1]heptan-2-yl(4-(3-hydroxyphenyl)piperazin-1-yl)methanone], the melting point is 187 to 189 °C (dec.). The 50% inhibitory concentration (IC50) on human EAAT2 (setting [4]) is above 300 µM. The IC50 on human EAAT1 (setting [5]) was above 300 µM. In addition, the IC50 at human EAAT3 (setting [6]) was above 300 µM.
On to `O=C(C1CCCCC1)N1CCN(c2cccc(C(F)(F)F)c2)CC1` [2.3, Cyclohexyl(4-(3-(trifluoromethyl)phenyl)piperazin-1-yl)methanone], for which the half-maximal inhibitory concentration (IC50) on human EAAT2 (setting [1]), on human EAAT1 (setting [2]) and on human EAAT3 (setting [3]) was around 100 µM in each case. Moreover, the “drop in inhibitory potency across the subtypes” value in the data set on human EAAT1-3 is listed as 5-15 fold.
For `O=C(c1ccccc1)N1CCN(c2cccc(C(F)(F)F)c2)CC1` [2.11, Phenyl(4-(3-(trifluoromethyl)phenyl)piperazin-1-yl)methanone], the IC50 is above 100 µM at human EAAT2 (setting [1]), around 150 µM at human EAAT1 (setting [2]) and above 100 µM on human EAAT3 (setting [3]). In addition, in the data set on human EAAT1-3, the “drop in inhibitory potency across the subtypes” value is reported as 5-15 fold.
`O=C(c1ccc2c(c1)OCO2)N1CCN(c2cccc(C(F)(F)F)c2)CC1` [2.12, Benzo[d][1,3]dioxol-5-yl(4-(3-(trifluoromethyl)phenyl)piperazin-1-yl)methanone] showed a melting point of 87 to 89 °C. For the same molecule, the IC50 at human EAAT2 (setting [1]) was above 100 µM. Besides, the IC50 on human EAAT1 (setting [2]) is above 100 µM. In addition, the IC50 at human EAAT3 (setting [3]) is above 100 µM.
As to `O=C(N1CCN(c2cccc(C(F)(F)F)c2)CC1)C1(c2ccccc2)CCCC1` [2.14, 1-Phenylcyclopentyl-(4-(3-(trifluoromethyl)phenyl)piperazin-1-yl)methanone], the melting point was in the range of 77 to 79 °C. Moreover, at human EAAT2, the IC50 is above 300 µM. In addition, the concentration for half-maximal inhibition (IC50) against human EAAT1 is above 300 µM. The molecule also came in with an IC50 at human EAAT3 above 300 µM.
`O=C(OCc1ccccc1)N1CCN(c2cccc(C(F)(F)F)c2)CC1` [2.32, Benzyl 4-(3-(trifluoromethyl)phenyl)piperazine-1-carboxylate]: the IC50 at human EAAT2 (setting [1]) was above 300 µM; at human EAAT1 (setting [2]), above 1000 µM; on human EAAT3 (setting [3]), above 300 µM. Further, the “inhibitory activity” value in the data set on human EAAT1-3 is reported as “neither the carbamate 2.32 nor the sulfonamide 2.33 analog displayed inhibitory activity”.
For the molecule `O=S(=O)(c1ccccc1)N1CCN(c2cccc(C(F)(F)F)c2)CC1` [2.33, 1-(Phenylsulfonyl)-4-(3-(trifluoromethyl)phenyl)piperazine], the melting point is 109 to 111 °C (dec.). Besides, at human EAAT2 (setting [1]), the IC50 is above 300 µM. The IC50 on human EAAT1 (setting [2]) was above 1000 µM. Besides, in the data set with human EAAT1-3, the “inhibitory activity” value is “neither the carbamate 2.32 nor the sulfonamide 2.33 analog displayed inhibitory activity”. Moreover, the IC50 on human EAAT3 (setting [3]) was above 1000 µM.
